Measurements: ChEMBL document CHEMBL1201861, “Genomics of Drug Sensitity in Cancer screening data, Wellcome Trust Sanger Institute”

Key:
Assay in all cases: cells
Type in all cases: functional, cell-based, Homo sapiens
COLO-800 = system: COLO-800;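 note: growth inhibition of COLO-800 cells, read out with a cell viability assay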
Description: SANGER: Inhibition of human COLO-800 cell growth in a cell viability assay.

COLO-829 = system: COLO-829
Description: SANGER: Inhibition of human COLO-829 cell growth in a cell viability assay.

KARPAS-45 = system: KARPAS-45;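 note: inhibition of cell line growth, read out through a viability assay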
Description: SANGER: Inhibition of human KARPAS-45 cell growth in a cell viability assay.

DEL = system: DEL;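 note: growth inhibition of the human DEL cell line, read out with a cell viability assay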
Description: SANGER: Inhibition of human DEL cell growth in a cell viability assay.

SF-539 = system: SF-539;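 note: Read-out is a cell viability assay, with IC50 reflecting inhibition of cell growth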
Description: SANGER: Inhibition of human SF539 cell growth in a cell viability assay.

SF-126 = system: SF-126;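 note: growth inhibition of human SF126 cells, read out with a cell viability assay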
Description: SANGER: Inhibition of human SF126 cell growth in a cell viability assay.

HEL = system: HEL;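 note: growth inhibition of HEL cells, read out with a cell viability assay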
Description: SANGER: Inhibition of human HEL cell growth in a cell viability assay.

NOS-1 = system: NOS-1;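 note: growth inhibition of the human NOS-1 cell line, read out with a cell viability assay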
Description: SANGER: Inhibition of human NOS-1 cell growth in a cell viability assay.

PSN1 = system: PSN1;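 note: suppression of growth of human PSN1 cells, read out by a cell viability assay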
Description: SANGER: Inhibition of human PSN1 cell growth in a cell viability assay.

ES1 = system: ES1;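 note: growth inhibition of ES1 cells, read out with a cell viability assay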
Description: SANGER: Inhibition of human ES1 cell growth in a cell viability assay.

P30-OHK = system: P30-OHK;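 note: growth inhibition of the P30-OHK cell line, read out with a cell viability assay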
Description: SANGER: Inhibition of human P30-OHK cell growth in a cell viability assay.

SW872 = system: SW872;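 note: growth inhibition of SW872 cells, read out by a viability assay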
Description: SANGER: Inhibition of human SW872 cell growth in a cell viability assay.

TE-8 = system: TE-8;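 note: growth inhibition of TE-8 cells, measured with a cell viability readout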
Description: SANGER: Inhibition of human TE-8 cell growth in a cell viability assay.

NCI-H209 = system: NCI-H209;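 note: growth inhibition of human NCI-H209 cells, measured by a cell viability assay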
Description: SANGER: Inhibition of human NCI-H209 cell growth in a cell viability assay.

HL-60 = system: HL-60;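 note: growth inhibition of human HL-60 cells, read out with a cell viability assay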
Description: SANGER: Inhibition of human HL-60 cell growth in a cell viability assay.

RH-1 = system: RH-1;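 note: growth inhibition of human RH-1 cells, read out with a cell viability assay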
Description: SANGER: Inhibition of human RH-1 cell growth in a cell viability assay.

LS-513 = system: LS-513
Description: SANGER: Inhibition of human LS-513 cell growth in a cell viability assay.

QIMR-WIL = system: QIMR-WIL;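 note: growth inhibition of QIMR-WIL cells, read out with a cell viability assay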
Description: SANGER: Inhibition of human QIMR-WIL cell growth in a cell viability assay.

GT3TKB = system: GT3TKB;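 note: growth inhibition of the cell line, read out with a cell viability assay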
Description: SANGER: Inhibition of human GT3TKB cell growth in a cell viability assay.

TE-5 = system: TE-5;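 note: inhibition of cell growth, read out by a cell viability assay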
Description: SANGER: Inhibition of human TE-5 cell growth in a cell viability assay.

JAR = system: JAR;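 note: growth inhibition of human JAR cells determined with a cell viability assay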
Description: SANGER: Inhibition of human JAR cell growth in a cell viability assay.

CTB-1 = system: CTB-1
Description: SANGER: Inhibition of human CTB-1 cell growth in a cell viability assay.

EW-16 = system: EW-16;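 note: growth inhibition of human EW-16 cells, read out as cell viability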
Description: SANGER: Inhibition of human EW-16 cell growth in a cell viability assay.

TE-10 = system: TE-10;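 note: growth inhibition of TE-10 cells, measured by a cell viability assay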
Description: SANGER: Inhibition of human TE-10 cell growth in a cell viability assay.

KE-37 = system: KE-37;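 note: growth inhibition of KE-37 cells, read out with a cell viability assay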
Description: SANGER: Inhibition of human KE-37 cell growth in a cell viability assay.

ALL-PO = system: ALL-PO;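 note: growth inhibition of ALL-PO cells, read out by a cell viability assay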
Description: SANGER: Inhibition of human ALL-PO cell growth in a cell viability assay.

NCI-H720 = system: NCI-H720;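 note: growth inhibition of human NCI-H720 cells determined by a cell viability assay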
Description: SANGER: Inhibition of human NCI-H720 cell growth in a cell viability assay.

RPMI-8866 = system: RPMI-8866
Description: SANGER: Inhibition of human RPMI-8866 cell growth in a cell viability assay.

K562 = system: K562
Description: SANGER: Inhibition of human K-562 cell growth in a cell viability assay.

A498 = system: A498;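 note: growth inhibition of human A498 cells, read out with a cell viability assay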
Description: SANGER: Inhibition of human A498 cell growth in a cell viability assay.

CCRF-CEM = system: CCRF-CEM;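 note: inhibition of CCRF-CEM cell growth, measured by a cell viability assay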
Description: SANGER: Inhibition of human CCRF-CEM cell growth in a cell viability assay.

TGBC1TKB = system: TGBC1TKB;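 note: growth inhibition of TGBC1TKB cells, read out by a cell viability assay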
Description: SANGER: Inhibition of human TGBC1TKB cell growth in a cell viability assay.

A388 = system: A388;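 note: growth inhibition of human A388 cells, read out with a cell viability assay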
Description: SANGER: Inhibition of human A388 cell growth in a cell viability assay.

LAN-6 = system: LAN-6;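 note: growth inhibition of LAN-6 cells, determined with a cell viability assay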
Description: SANGER: Inhibition of human LAN-6 cell growth in a cell viability assay.

LC-2-ad = system: LC-2-ad;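 note: growth inhibition of human LC-2-ad cells, read out with a cell viability assay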
Description: SANGER: Inhibition of human LC-2-ad cell growth in a cell viability assay.

COLO-320-HSR = system: COLO-320-HSR;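 note: growth inhibition of COLO-320-HSR cells, determined with a cell viability assay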
Description: SANGER: Inhibition of human COLO-320-HSR cell growth in a cell viability assay.

ATN-1 = system: ATN-1;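 note: growth inhibition of human ATN-1 cells, read out with a cell viability assay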
Description: SANGER: Inhibition of human ATN-1 cell growth in a cell viability assay.

NCI-H226 = system: NCI-H226;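 note: cell viability read-out used to gauge growth inhibition of the cells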
Description: SANGER: Inhibition of human NCI-H226 cell growth in a cell viability assay.

KU812 cell line = system: KU812 cell line;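 note: growth inhibition of KU812 cells, read out with a cell viability assay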
Description: SANGER: Inhibition of human KU812 cell growth in a cell viability assay.

NH-12 = system: NH-12;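 note: growth inhibition of NH-12 cells, read out with a cell viability assay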
Description: SANGER: Inhibition of human NH-12 cell growth in a cell viability assay.

LB996-RCC = conditions: Homo sapiens, LB996-RCC
Description: SANGER: Inhibition of human LB996-RCC cell growth in a cell viability assay.

LU-134-A = system: LU-134-A
Description: SANGER: Inhibition of human LU-134-A cell growth in a cell viability assay.

LNCaP-Clone-FGC = system: LNCaP-Clone-FGC
Description: SANGER: Inhibition of human LNCaP-Clone-FGC cell growth in a cell viability assay.

NTERA-2-cl-D1 = system: NTERA-2-cl-D1;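 note: inhibition of cell growth, measured with a cell viability assay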
Description: SANGER: Inhibition of human NTERA-S-cl-D1 cell growth in a cell viability assay.

GAK = system: GAK;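 note: cell growth inhibition read out by a cell viability assay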
Description: SANGER: Inhibition of human GAK cell growth in a cell viability assay.

LB373-MEL-D = conditions: lb373-mel-d;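 note: growth inhibition of the cell line, read out in a cell viability assay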
Description: SANGER: Inhibition of human LB373-MEL-D cell growth in a cell viability assay.

EC-GI-10 = conditions: ec-gi-10
Description: SANGER: Inhibition of human EC-GI-10 cell growth in a cell viability assay.

SK-LMS-1 = conditions: sk-lms-1;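 note: growth inhibition of human SK-LMS-1 cells, read out with a cell viability assay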
Description: SANGER: Inhibition of human SK-LMS-1 cell growth in a cell viability assay.

DMS-79 = conditions: dms-79;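 note: growth inhibition measured with a cell viability assay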
Description: SANGER: Inhibition of human DMS-79 cell growth in a cell viability assay.

CCN(CC)CCCCNc1ncc2cc(-c3cc(OC)cc(OC)c3)c(NC(=O)NC(C)(C)C)nc2n1 [PD-173074]
IC50 (COLO-800; Homo sapiens, COLO-800): > 2 µM
IC50 (COLO-829; Homo sapiens, COLO-829): > 2 µM
IC50 (KARPAS-45; Homo sapiens, KARPAS-45): > 2000 nM
IC50 (DEL; Homo sapiens, DEL): > 2 µM
IC50 (SF-539; Homo sapiens, SF-539): > 2 µM
IC50 (SF-126; Homo sapiens, SF-126): > 2 µM
IC50 (HEL; Homo sapiens, HEL): > 2000 nM
IC50 (NOS-1; Homo sapiens, NOS-1): > 2 µM
IC50 (PSN1; Homo sapiens, PSN1): > 2000 nM
IC50 (ES1; Homo sapiens, ES1): > 2000 nM
IC50 (P30-OHK; Homo sapiens, P30-OHK): > 2000 nM
IC50 (SW872; Homo sapiens, SW872): > 2000 nM
IC50 (TE-8; Homo sapiens, TE-8): > 2 µM
IC50 (NCI-H209; Homo sapiens, NCI-H209): > 2000 nM
IC50 (HL-60; Homo sapiens, HL-60): > 2000 nM
IC50 (RH-1; Homo sapiens, RH-1): > 2 µM
IC50 (LS-513; Homo sapiens, LS-513): > 2000 nM
IC50 (QIMR-WIL; Homo sapiens, QIMR-WIL): > 2000 nM
IC50 (GT3TKB; Homo sapiens, GT3TKB): > 2 µM
IC50 (TE-5; Homo sapiens, TE-5): > 2 µM
IC50 (JAR; Homo sapiens, JAR): > 2 µM
IC50 (CTB-1; Homo sapiens, CTB-1): > 2000 nM
IC50 (EW-16; Homo sapiens, EW-16): > 2 µM
IC50 (TE-10; Homo sapiens, TE-10): > 2 µM
IC50 (KE-37; Homo sapiens, KE-37): > 2 µM
IC50 (ALL-PO; Homo sapiens, ALL-PO): > 2 µM
IC50 (NCI-H720; Homo sapiens, NCI-H720): > 2 µM
IC50 (RPMI-8866; Homo sapiens, RPMI-8866): > 2 µM
IC50 (K562; Homo sapiens, K562): > 2 µM
IC50 (A498; Homo sapiens, A498): > 2 µM
IC50 (CCRF-CEM; Homo sapiens, CCRF-CEM): > 2 µM
IC50 (TGBC1TKB; Homo sapiens, TGBC1TKB): > 2 µM
IC50 (A388; Homo sapiens, A388): > 2 µM
IC50 (LAN-6; Homo sapiens, LAN-6): > 2000 nM
IC50 (LC-2-ad; Homo sapiens, LC-2-ad): > 2 µM
IC50 (COLO-320-HSR; Homo sapiens, COLO-320-HSR): > 2 µM
IC50 (ATN-1; Homo sapiens, ATN-1): > 2 µM
IC50 (NCI-H226; Homo sapiens, NCI-H226): > 2 µM
IC50 (KU812 cell line; Homo sapiens, KU812): > 2000 nM
IC50 (NH-12; Homo sapiens, NH-12): > 2 µM
IC50 (LB996-RCC): > 2 µM
IC50 (LU-134-A; Homo sapiens, LU-134-A): > 2 µM
IC50 (LNCaP-Clone-FGC; Homo sapiens, LNCaP-Clone-FGC): > 2 µM
IC50 (NTERA-2-cl-D1; Homo sapiens, NTERA-2-cl-D1): > 2000 nM
IC50 (GAK; Homo sapiens, GAK): > 2000 nM

Cn1cnc2c(F)c(Nc3ccc(Br)cc3Cl)c(C(=O)NOCCO)cc21 [SELUMETINIB]
IC50 (COLO-800; Homo sapiens, COLO-800): > 4 µM
IC50 (KARPAS-45; Homo sapiens, KARPAS-45): 2080 nM
IC50 (DEL; Homo sapiens, DEL): > 4 µM
IC50 (SF-539; Homo sapiens, SF-539): > 4 µM
IC50 (SF-126; Homo sapiens, SF-126): > 4 µM
IC50 (HEL; Homo sapiens, HEL): > 4000 nM
IC50 (NOS-1; Homo sapiens, NOS-1): > 4 µM
IC50 (PSN1; Homo sapiens, PSN1): 366 nM
IC50 (ES1; Homo sapiens, ES1): > 4000 nM
IC50 (P30-OHK; Homo sapiens, P30-OHK): > 4000 nM
IC50 (SW872; Homo sapiens, SW872): 1270 nM
IC50 (TE-8; Homo sapiens, TE-8): > 4 µM
IC50 (NCI-H209; Homo sapiens, NCI-H209): > 4000 nM
IC50 (HL-60; Homo sapiens, HL-60): 24.6 nM
IC50 (RH-1; Homo sapiens, RH-1): > 4 µM
IC50 (LS-513; Homo sapiens, LS-513): 1420 nM
IC50 (QIMR-WIL; Homo sapiens, QIMR-WIL): 1340 nM
IC50 (GT3TKB; Homo sapiens, GT3TKB): > 4 µM
IC50 (TE-5; Homo sapiens, TE-5): > 4 µM
IC50 (JAR; Homo sapiens, JAR): > 4 µM
IC50 (CTB-1; Homo sapiens, CTB-1): > 4000 nM
IC50 (EW-16; Homo sapiens, EW-16): > 4 µM
IC50 (TE-10; Homo sapiens, TE-10): > 4 µM
IC50 (KE-37; Homo sapiens, KE-37): > 4 µM
IC50 (ALL-PO; Homo sapiens, ALL-PO): > 4 µM
IC50 (NCI-H720; Homo sapiens, NCI-H720): > 4 µM
IC50 (RPMI-8866; Homo sapiens, RPMI-8866): > 4 µM
IC50 (K562; Homo sapiens, K562): > 4 µM
IC50 (A498; Homo sapiens, A498): > 4 µM
IC50 (CCRF-CEM; Homo sapiens, CCRF-CEM): > 4 µM
IC50 (TGBC1TKB; Homo sapiens, TGBC1TKB): > 4 µM
IC50 (A388; Homo sapiens, A388): > 4 µM
IC50 (LAN-6; Homo sapiens, LAN-6): 2830 nM
IC50 (LC-2-ad; Homo sapiens, LC-2-ad): > 4 µM
IC50 (COLO-320-HSR; Homo sapiens, COLO-320-HSR): > 4 µM
IC50 (ATN-1; Homo sapiens, ATN-1): > 4 µM
IC50 (NCI-H226; Homo sapiens, NCI-H226): > 4 µM
IC50 (KU812 cell line; Homo sapiens, KU812): 212 nM
IC50 (NH-12; Homo sapiens, NH-12): > 4 µM
IC50 (LB996-RCC): 3.95 µM
IC50 (LU-134-A; Homo sapiens, LU-134-A): > 4 µM
IC50 (LNCaP-Clone-FGC; Homo sapiens, LNCaP-Clone-FGC): > 4 µM
IC50 (NTERA-2-cl-D1; Homo sapiens, NTERA-2-cl-D1): > 4000 nM
IC50 (GAK; Homo sapiens, GAK): 1900 nM

CISPLATIN
IC50 (COLO-800; colo-800): 20.1 µM
IC50 (COLO-829; colo-829): 7.27 µM
IC50 (KARPAS-45; karpas-45): 361000 nM
IC50 (DEL; del): 3.67 µM
IC50 (SF-539; sf-539): 3.53 µM
IC50 (SF-126; sf-126): 12.1 µM
IC50 (HEL; hel): 1390 nM
IC50 (LB373-MEL-D): 11 µM
IC50 (NOS-1; nos-1): 147 µM
IC50 (PSN1; psn1): 1680 nM
IC50 (ES1; es1): 1020 nM
IC50 (P30-OHK; p30-ohk): 2710 nM
IC50 (SW872; sw872): 40800 nM
IC50 (EC-GI-10): 13.2 µM
IC50 (TE-8; te-8): 16.5 µM
IC50 (SK-LMS-1): 814 µM
IC50 (NCI-H209; nci-h209): 537 nM
IC50 (HL-60; hl-60): 8690 nM
IC50 (RH-1; rh-1): 333 µM
IC50 (LS-513; ls-513): 61600 nM
IC50 (QIMR-WIL; qimr-wil): 29300 nM
IC50 (GT3TKB; gt3tkb): 3.92 µM
IC50 (TE-5; te-5): 211 µM
IC50 (JAR; jar): 3.35 µM
IC50 (CTB-1; ctb-1): 2300 nM
IC50 (EW-16; ew-16): 24.6 µM
IC50 (TE-10; te-10): 158 µM
IC50 (KE-37; ke-37): 31.5 µM
IC50 (DMS-79): 24.4 µM
IC50 (ALL-PO; all-po): 31.1 µM
IC50 (NCI-H720; nci-h720): 136 µM
IC50 (RPMI-8866; rpmi-8866): 13.2 µM
IC50 (K562; k562): 509 µM
IC50 (A498; a498): 19.6 µM
IC50 (CCRF-CEM; ccrf-cem): 96 µM
IC50 (TGBC1TKB; tgbc1tkb): 82.6 µM
IC50 (A388; a388): 51.9 µM
IC50 (LAN-6; lan-6): 256000 nM
IC50 (LC-2-ad; lc-2-ad): 12.2 µM
IC50 (COLO-320-HSR; colo-320-hsr): 338 µM
IC50 (ATN-1; atn-1): 18.6 µM
IC50 (NCI-H226; nci-h226): 41.5 µM
IC50 (KU812 cell line; ku812): 49000 nM
IC50 (NH-12; nh-12): 13.2 µM
IC50 (LU-134-A; lu-134-a): 3.94 µM
IC50 (LNCaP-Clone-FGC; lncap-clone-fgc): 515 µM
IC50 (NTERA-2-cl-D1; ntera-2-cl-d1): 848 nM
IC50 (GAK; gak): 490000 nM
